Data taken from publication PMC6290556, “1,4-Disubstituted Thiosemicarbazide Derivatives are Potent Inhibitors of Toxoplasma gondii Proliferation” (Molecules, 2014).
Values after ≈ are worked out from the molar mass of the structure shown.

What was measured:
L929 cells = assay: MTT cell viability assay (ISO 10993-5); assay type: cell-based, mouse; conditions: for viability of L929 cells: 24 h, ± SD; for CC30 (concentration required for 30% proliferation inhibition in vitro): L929 cells
Procedure: (§1) Cell line L929 (ATTC® Catalog No. […] The MTT assay was used according to international standards: ISO 10993-5:2009(E), Biological evaluation of medical devices, Part 5: Tests for in vitro cytotoxicity. […] Then, 1 mg/mL MTT (50 μL/well) was added to each well and incubated at 37 °C, 10% CO2 for 2 h. Mitochondrial dehydrogenases of viable cells reduced the yellowish water-soluble MTT to water-insoluble formazan crystals, which were solubilized with dimethyl sulfoxide (DMSO). The cell culture medium was aspirated cautiously, after which 150 μL DMSO was added to each well and mixed thoroughly. Optical density (OD) was read on the ELISA reader (Multiskan EX, Labsystems, Vienna, VA, USA) at 550 nm. […] All experiments were performed in triplicate.

[1] = tested on: T. gondii RH strain tachyzoites; assay: [3H]uracil incorporation assay of T. gondii proliferation in L929 host cells; assay type: cell-based, Toxoplasma gondii; conditions: assay A [3H]uracil incorporation; for intensity of T. gondii proliferation: vs untreated blank
Procedure: In the next step of our studies, the prepared 1,4-disubstituted thiosemicarbazides (series 1–3) were used to assess the inhibition of T. gondii growth in vitro. For this purpose, intracellular parasites (tachyzoites) of RH strain were incubated with different concentrations of the thiosemicarbazides ranging from 1 to 100 µg/mL. Inhibition of the parasite growth was monitored by measuring the specific incorporation of [^3H]uracil in the parasite’s nucleic acids.
The tachyzoites of T. gondii strain RH – intraspecies type I (ATCC_ Number 50174™) were maintained through passages on female C57BL/6 (H-2^b) and BALB/c (H-2^d) mice with genetically determined high and low susceptibility (respectively) to T. gondii infection (10–12 weeks old). Tachyzoites washed out from the peritoneum cavity were once expanded in vitro on L929 cells.
L929, (2 × 10^4 cells/100 µL/well) were grown in complete medium (IMDM) on 96-well plates. After 24 h incubation, a medium was removed and then T. gondii RH tachyzoites, suspended in culture medium supplemented with 1.0, 5.0, 10.0, 50.0 and 100.0 μg/mL 1,4-disubstituted thiosemicarbazides (1g, 2b, 2m, 3d, 3l) and as a control-sulfadiazine, were added (2 × 10^5 tachyzoites/200 µL/well) to the cell monolayers. After subsequent 48 h incubation 1 µCi/well of [^3H] uracil (Moravek Biochemicals Inc., Brea, CA, USA) was applied to each microculture for further 18–20 h. The amount of the isotope incorporated into the parasite nucleic acid pool, corresponding to the parasite growth, was measured by liquid scintillation counting with 1450 Microbeta Plus Liquid Scintillation Counter (Wallac Oy, Turku, Finland).

[2] = tested on: Gram-positive and Gram-negative bacterial strains; assay: antibacterial assay (disc diffusion / agar dilution); assay type: cell-based; conditions: even at high concentrations
Excerpt: The following microorganisms were used in this study: Staphylococcus aureus (ATCC 25923, ATCC 6538, ATCC 29213, NCTC 4163), Staphylococcus epidermidis ATCC 12228, Bacillus subtilis ATCC 6633, Bacillus cereus ATCC 11778, Micrococcus luteus (ATCC 9341, ATCC 10240), Escherichia coli (ATCC 10538, ATCC 25922, NCTC 8196), […] NCTC 4635, Pseudomonas aeruginosa (ATCC 15442, ATCC 27853, NCTC 6749), and Bordetella bronchiseptica ATCC 4617. Initially, antibacterial activity of thiosemicarbazide derivatives was screened on the basis of growth inhibition zone (giz) utilizing the disc diffusion method, according to the Clinical and Laboratory Standards Institute guidelines. For compounds showing the inhibitory effect on the growth of tested bacteria, monitored as an appearance of giz, the minimal inhibitory concentrations (MICs) were determined using agar dilution method, according to the Clinical and Laboratory Standards Institute guidelines. The minimal inhibitory concentrations (MICs) were defined as the lowest concentration of the compound preventing growth of the tested microorganism. In both methods, recommended Mueller-Hinton II agar medium (Becton Dickinson, Heidelberg, Germany) was used. Solutions containing the tested agents were prepared in methanol or DMSO. Ciprofloxacin was used as control antimicrobial agent.

T. gondii RH strain = assay: quantitative real-time PCR (B1 gene) of T. gondii in infected L929 cells; assay type: cell-based, Toxoplasma gondii; conditions: assay B qRT-PCR, L929 host cells
Procedure: T. gondii genomic DNA was isolated from the tachyzoites of RH strain with Wizard® SV Genomic DNA Purification System (Promega, Madison, WI, USA) according to the manufacturer’s instruction. The DNA concentration and purity were measured using a NanoPhotometer (Implen, München, Germany), while the integrity of the extracted DNA was tested using an ethidium bromide-stained agarose gel. DNA was used for the detection and quantitationof T. gondii in analyzed samples and it was stored at −20 °C until use.
A quantitative real-time PCR (qRT-PCR) assay, targeting B1 gene was performed to detect and to quantitate T. gondii in analyzed samples (1g, 2b, 2m, 3d, 3l and sulphadiazine) according to the modified protocol of Wahab et al.. […] Amplification was carried out on a 7900HT real-time PCR system (Applied Biosystems, Carlsbad, CA, USA). The reaction mixtures (25 µL) consisted of 1x TaqMan PCR master mix supplemented with ROX (Applied Biosystems), 300 nM probe, 900 nM of each primer and 2 µL of template DNA. For quantification a standard curve was constructed using 10-fold serial dilutions of DNA extracted from a known number of T. gondii. The cycling parameters were: 50 °C for 2 min, initial activation at 95 °C for 10 min, and 45 two-step cycles of 95 °C for 15 s and 60 °C for 1 min. All samples were analyzed in triplicate.

[3] = solubility under the anti-T. gondii protocol conditions; assay type: physicochemical; conditions: anti-T. gondii assay protocol, 1 to 100 µg/mL
Procedure: In the next step of our studies, the prepared 1,4-disubstituted thiosemicarbazides (series 1–3) were used to assess the inhibition of T. gondii growth in vitro. For this purpose, intracellular parasites (tachyzoites) of RH strain were incubated with different concentrations of the thiosemicarbazides ranging from 1 to 100 µg/mL. Inhibition of the parasite growth was monitored by measuring the specific incorporation of [^3H]uracil in the parasite’s nucleic acids. Unfortunately, among the 15 compounds tested, derivatives 1a–1e, 1k, 1l, 2f, 2i, 2j, and 3h were insoluble under the protocol conditions and, consequently, they were eliminated from further experiments. The percentages of the parasite growth inhibition in L929 cells by the remaining compounds 1g, 2b, 3d, 3l and the control drug-sulfadiazine as well as IC50 values are shown in Table 1.
A preliminary assumption was thus put forward that the presence of both the five-membered hetaryl moiety at N1 position and the aryl moiety at N4 position of thiosemicarbazide core are the key functionalities required for potent anti-T. gondii activity of thiosemicarbazide-based compounds, which may be directly linked with the electronic structure of the molecule. In order to verify the preliminary hypothesis, 4-ethyl-1-(thiophen-2-yl)carbonylthiosemicarbazide (1m), 4-cyclohexyl-1-(thiophen-2-yl)carbonylthiosemicarbazide (1n), and 4-ethyl-1-(2-methylfuran-3-yl)carbonylthio-semicarbazide (2m) were synthesized and their bioactivity was tested. Unfortunately, derivatives 1m and 1n were insoluble under the protocol conditions and, consequently, they were eliminated from further experiments. […] The assumption of the existence of the relationship between the anti-T. gondii activity of the studied thiosemicarbazides and their molecular structure was also confirmed based on DFT calculations. Figure 3 illustrates the electrostatic potential mapped on the density surface using the Gaussview program. Neutral fragments are characterized by the green color of the surface. The negative charge is represented by red, while the positive charge is marked in blue. If compound 1g is excluded from the consideration, the biological activity correlates well with the dipole moment of the molecule. In this series it seems that the activity depends on the bimodal partial negative charge developed on the carbonyl oxygen and another moiety on the same side of the molecule (a sulfur atom in 2b and 3d). Its low value in 3l and lack in 2m may be responsible for the lower activity. […] It contains, however, two partial negative charge centers as the series discussed above and an additional such center on the fluorine atom. Comparison of the biological activity of 1g and 2m seems to indicate the crucial role of the second negative charge density on the top of the molecule on a moiety other than the carbonyl oxygen. Another observation that comes from the analysis of the presented structures is that the biological activity is pronounced when the methyl group of the five-membered ring is directed away from the carbonyl group.

[4] = MTT cell viability assay (ISO 10993-5); assay type: cell-based, mouse; conditions: mouse, L929 mouse fibroblast cells, 24 h, ± SD
Procedure: as §1

[5] = tested on: T. gondii RH strain tachyzoites; assay: [3H]uracil incorporation assay of T. gondii proliferation in L929 host cells; assay type: cell-based; conditions: Toxoplasma gondii, L929, read-out: IC50 (50% of T. gondii proliferation inhibition in vitro)

4-ethyl-1-(2-methylfuran-3-yl)carbonylthio-semicarbazide [Compound 2m]
viability of L929 cells (L929 cells; 1 µg/mL): 104.05 ± 0.12%
viability of L929 cells (L929 cells; 5 µg/mL): 94.44 ± 2.62%
viability of L929 cells (L929 cells; 10 µg/mL): 94.05 ± 5.13%
viability of L929 cells (L929 cells; 50 µg/mL): 90.49 ± 2.99 %
viability of L929 cells (L929 cells; 100 µg/mL): 92.17 ± 2.31 %
viability of L929 cells (L929 cells; 500 µg/mL): 80.40 ± 2.74 %
CC30 (concentration required for 30% proliferation inhibition in vitro) (L929 cells): >500 µg/mL
intensity of T. gondii proliferation ([1]; 1 µg/mL): 98.00 ± 19.53%
intensity of T. gondii proliferation ([1]; 5 µg/mL): 75.74 ± 14.62%
intensity of T. gondii proliferation ([1]; 10 µg/mL): 60.61 ± 9.56 %
intensity of T. gondii proliferation ([1]; 50 µg/mL): 66.49 ± 11.38 %
intensity of T. gondii proliferation ([1]; 100 µg/mL): 57.59 ± 15.02 %
IC50 (50% of T. gondii proliferation inhibition in vitro) [1]: 191.04 µg/mL
growth-inhibiting effect on bacterial strains [2]: no growth-inhibiting effect
intensity of T. gondii proliferation (T. gondii RH strain; 50 µg/mL): 51.03 ± 7.02 %
intensity of T. gondii proliferation (T. gondii RH strain; 100 µg/mL): 53.03 ± 9.87 %

Cc1ccccc1NC(=S)NNC(=O)c1cccs1 [Compound 1b, 4-(2-Methylphenyl)-1-(thiophen-2-yl)carbonylthiosemicarbazide]
melting point: 155 to 157 °C

Cc1cccc(NC(=S)NNC(=O)c2cccs2)c1 [Compound 1e, 4-(3-Methylphenyl)-1-(thiophen-2-yl)carbonylthiosemicarbazide]
melting point: 188 to 190 °C

O=C(NNC(=S)Nc1ccc([N+](=O)[O-])cc1)c1cccs1 [Compound 1k]
solubility under the protocol conditions [3]: insoluble

O=C(NNC(=S)Nc1ccc(F)cc1F)c1cccs1 [Compound 1l]
solubility under the protocol conditions [3]: insoluble

CCN=C(S)NNC(=O)c1cccs1 [Compound 1m, 4-ethyl-1-(thiophen-2-yl)carbonylthiosemicarbazide]
solubility under the protocol conditions [3]: insoluble

O=C(NNC(=S)NC1CCCCC1)c1cccs1 [Compound 1n, 4-cyclohexyl-1-(thiophen-2-yl)carbonylthiosemicarbazide]
solubility under the protocol conditions [3]: insoluble

Cc1ccccc1NC(=S)NNC(=O)c1ccoc1C [Compound 2b]
CC30 (concentration required for 30% proliferation inhibition in vitro) (L929 cells): 187.51 µg/mL
viability at 24 h, 1 µg/mL ([4]; 1 µg/mL): 95.3 ± 9.52%
viability at 24 h, 5 µg/mL ([4]; 5 µg/mL): 94 ± 1.78%
viability at 24 h, 10 µg/mL ([4]; 10 µg/mL): 91.9 ± 5.21%
viability at 24 h, 50 µg/mL ([4]; 50 µg/mL): 84.5 ± 1.43%
viability at 24 h, 100 µg/mL ([4]; 100 µg/mL): 78.2 ± 1.61%
viability at 24 h, 500 µg/mL ([4]; 500 µg/mL): 30.3 ± 0.86%
intensity of T. gondii proliferation ([1]; 1 µg/mL): 98.24 ± 23.83%
intensity of T. gondii proliferation ([1]; 5 µg/mL): 107.95 ± 24.88%
intensity of T. gondii proliferation ([1]; 10 µg/mL): 112.25 ± 22.91 %
intensity of T. gondii proliferation ([1]; 50 µg/mL): 58.78 ± 11.49 %
intensity of T. gondii proliferation ([1]; 100 µg/mL): 8.10 ± 2.78 %
growth-inhibiting effect on bacterial strains [2]: no growth-inhibiting effect
intensity of T. gondii proliferation (T. gondii RH strain; 50 µg/mL): 41.37 ± 9.98 %
intensity of T. gondii proliferation (T. gondii RH strain; 100 µg/mL): 7.29 ± 1.56 %
IC50 [5]: 59 µg/mL (≈ 204 µM)

Cc1ccc(NC(=S)NNC(=O)c2ccoc2C)cc1 [Compound 2f]
solubility under the protocol conditions [3]: insoluble

Cc1occc1C(=O)NNC(=S)Nc1ccc(Br)cc1 [Compound 2i]
solubility under the protocol conditions [3]: insoluble

Cc1occc1C(=O)NNC(=S)Nc1ccc(I)cc1 [Compound 2j]
solubility under the protocol conditions [3]: insoluble

Cc1nnsc1C(=O)NNC(=S)Nc1ccc(Cl)cc1 [Compound 3h]
solubility under the protocol conditions [3]: insoluble
